Assay results taken from patent US11439643B2, “Combination therapy using belinostat and pralatrexate to treat lymphoma” (Spectrum Pharmaceuticals, Inc., priority 2015, dated 2022).
Read-outs that look alike come from different tables or passages of the source.

Legend:
Type in all cases: cell-based
[1] = system: HUT-78 [Cutaneous T lymphocyte (T cell origin)]; experiment: CellTiter-Glo cell viability / growth inhibition, HUT-78; conditions: Homo sapiens, HuT78
Experimental: (§1) The growth inhibitory effects of belinostat alone, and in combination with pralatrexate, was assayed in several different human lymphoma cell lines in vitro.
(§2) Serum used in this study is un-dialyzed fetal bovine serum (Atlanta Biologics) and contains<[…] of 5-methyltetrahydrofolate.
(§3) The cultures are maintained in T75-cm^2 culture flasks at 37° C., 95% air humidity, and 5% CO2. The cells are subcultured at 80-90% confluence and are seeded into 96-well plates at 1.5×10^4 cells per well for each experiment.
(§4) Cell Treatment: Treatment is initiated 24 hours after plating. […] Growth Inhibition Assay: Cell viability is determined using the CellTiter-Glo® Luminescent Cell Viability assay from Promega. The CellTiter-Glo® assay is a homogeneous method to determine and compare cell viability using ATP utilization. Following treatment, 100 μl of growth medium is removed and cells are incubated with 100 μl CellTiter-Glo® reagent for two minutes with nutation and incubated at room temperature for ten additional minutes to stabilize the luminescence signal; luminescence is then measured using a Biotek luminometer with values reported in (Lum).
(§5) Data analysis: Cell viability in each assay is expressed as a percentage versus untreated control cells.

[2] = system: panel of lymphoma cell lines; experiment: CellTiter-Glo cell viability, panel of lymphoma cell lines; conditions: Homo sapiens; single agent, 72 hr exposure, range over cell lines; read-out: Single agent IC50 values across a panel of lymphoma cell lines
Experimental: as §1, §2, §3
Cell Treatment: Treatment is initiated 24 hours after plating.
Growth Inhibition Assay: Cell viability is determined using the CellTiter-Glo® Luminescent Cell Viability assay from Promega. The CellTiter-Glo® assay is a homogeneous method to determine and compare cell viability using ATP utilization. Following treatment, 100 μl of growth medium is removed and cells are incubated with 100 μl CellTiter-Glo® reagent for two minutes with nutation and incubated at room temperature for ten additional minutes to stabilize the luminescence signal; luminescence is then measured using a Biotek luminometer with values reported in (Lum).
as §5

[3] = system: Jeko-1 [Mantle Cell Lymphoma (B cell origin)]; experiment: CellTiter-Glo cell viability / growth inhibition, Jeko-1; conditions: Homo sapiens; Jeko-1, belinostat plus pralatrexate concurrently, 72 h; read-out: IC50 in combination studies
Experimental: as §1, §2, §3, §4, §5

[4] = system: KARPAS-299 [Human Non-Hodgkin's Ki-positive Large Cell Lymphoma (T cell origin)]; experiment: CellTiter-Glo cell viability / growth inhibition, KARPAS-299
Experimental: as §1, §2, §3, §4, §5

[5] = HUT-78, belinostat plus pralatrexate concurrently, 72 h, read-out: IC50 in combination studies
[6] = HUT-78, single agent, 72 hr exposure, read-out: Single Agent IC50
[7] = KARPAS-299, belinostat plus pralatrexate concurrently, 72 h, read-out: IC50 in combination studies

SMILES | IC50 [1, 5] | IC50 [1, 6] | IC50 [2] | IC50 [3] | IC50 [4, 7] | IC50 ([4]; KARPAS-299, single agent, 72 hr exposure, read-out: Single Agent IC50)
O=C(/C=C/c1cccc(S(=O)(=O)Nc2ccccc2)c1)NO [Belinostat, (2E)-N-hydroxy-3-[3-(phenylsulfamoyl)phenyl]prop-2-enamide] | 170 nM | 97 nM | 90 to 210 nM | 87 nM | 127 nM | –
C#CCC(Cc1cnc2nc(N)nc(N)c2n1)c1ccc(C(=O)N[C@@H](CCC(=O)O)C(=O)O)cc1 (mixture of isomers) [Pralatrexate, (2S)-2-[[4-[(1RS)-1-[(2,4-diaminopteridin-6-yl)methyl]but-3ynyl]benzoyl]amino]pentanedioic acid] | 4.1 nM | 2.8 nM | 2 to 25 nM | 2.1 nM | 3.6 nM | 24 nM
